Test results reported in patent US12649942B2, “Carotenoids for treating or preventing nausea” (priority 2019, dated 2026).

Experiments:
pgp-5p::gfp [1] = test: pgp-5p::gfp induction in eft-3(q145);pgp-5p::gfp animals (translation deficit); assay type: in vivo, C. elegans; conditions: vs mock-treated
C. elegans = test: food aversion behavior; assay type: in vivo; conditions: for food aversion induced by the drug: in vivo
Description: In some embodiments, a food aversion assay as described herein is used. In some embodiments, a test sample is, or is derived from (e.g., a sample taken from) an in vivo model of a disorder as described herein. For example, a test compound is applied to a test sample comprising one or more C. elegans organisms, and one or more effects of the test compound is evaluated. For example, the ability of a test compound to counteract food aversion in the presence of a chemotherapeutic agent or other nausea-inducing stimulus can be tested. Alternatively, effects on a reporter gene, e.g., ABC transporter gene fusion pgp-5p::gfp, can be evaluated by detecting alterations in GFP fluorescence. As one of skill in the art will appreciate, other reporters could readily be used.
C. elegans food aversion behaviors are induced when animals are exposed to xenobiotics or essential gene inactivations (Melo and Ruvkun, 2012). […] While ˜40% of animals exposed to 25 μg/ml hygromycin display food aversion behavior, ˜15% of animals exposed to 25 μg/ml hygromycin and K. rhizophila carotenoid extract show aversion (FIG. 3E). Similar results were obtained with cisplatin: ˜50% of animals exposed to 1 mM cisplatin display aversion behavior while <20% of animals exposed to 1 mM cisplatin and K. rhizophila carotenoid extract display food aversion (FIG. 3F).

pgp-5p::gfp [2] = test: pgp-5p::gfp induction in response to hygromycin, emetine or cisplatin; assay type: in vivo, C. elegans; conditions: animals fed E. coli OP50; hygromycin 10 μg/ml, emetine 6.25 μg/ml, cisplatin 1 mM
Description: Hygromycin diluted in M9 solution to the desired concentration was added onto E. coli OP50 bacteria containing NGM plates. […] For the xenobiotic experiments, synchronized L1-stage animals were dropped onto the drug containing plates and scored 4 days later.

[3] = animals on E. coli OP50 treated with the substance, screened after 50 hours at 20° C.
[4] = animals fed on E. coli expressing the carotenoid

Structure (SMILES)	induction of pgp-5p::gfp (pgp-5p::gfp [1]; [3])	induction of pgp-5p::gfp (pgp-5p::gfp [1]; [4])	also measured
CC(=O)N[C@@H](CS)C(=O)O [N-acetyl cysteine]	not significantly different	–	–
CC[C@H]1CN2CCc3cc(OC)c(OC)cc3[C@@H]2C[C@@H]1C[C@H]1NCCc2cc(OC)c(OC)cc21 [emetine]	–	–	food aversion induced by the drug (C. elegans): strong food aversion
CC(/C=C/C=C(C)/C=C/[C@@]12O[C@]1(C)C[C@@H](O)CC2(C)C)=C\C=C\C=C(C)\C=C\C=C(C)\C=C\[C@@]12O[C@]1(C)C[C@@H](O)CC2(C)C [violaxanthin]	–	not significantly different	–
Cc1c(C)c2c(c(C)c1O)CCC(C)(C(=O)O)O2 (stereo not shown) [trolox]	not significantly different	–	–
CC1=C(/C=C/C(C)=C/C=C/C(C)=C/C=C/C=C(C)/C=C/C=C(C)/C=C/C2=C(C)CCCC2(C)C)C(C)(C)CCC1 [beta-carotene]	not significantly different	–	–
N.N.[Cl][Pt][Cl] [cisplatin]	–	–	pgp-5p::gfp expression induced by the drug (pgp-5p::gfp [2]): induces pgp-5p::gfp expression; animals that display aversion behavior (C. elegans; 1 mM cisplatin, no extract): ~50%; food aversion induced by the drug (C. elegans): strong food aversion
CC1=C(/C=C/C(C)=C/C=C/C(C)=C/C=C/C=C(C)/C=C/C=C(C)/C=C/C2=C(C)C[C@@H](O)CC2(C)C)C(C)(C)C[C@H](O)C1 [zeaxanthin]	–	not significantly different	–
CC1=CCCC(C)(C)C1/C=C/C(C)=C/C=C/C(C)=C/C=C/C=C(C)/C=C/C=C(C)/C=C/C1=C(C)CCCC1(C)C (stereo not drawn) [alpha-carotene]	–	not significantly different	–
CC(C)=CCC/C(C)=C/C=C/C(C)=C/C=C/C(C)=C/C=C/C=C(C)/C=C/C=C(\C)CC/C=C(\C)CCC=C(C)C [neurosporene]	–	not significantly different	–
CC(C)=CCC/C(C)=C/C=C/C(C)=C/C=C/C(C)=C/C=C/C=C(C)/C=C/C=C(C)/C=C/C1C(C)=CCCC1(C)C (stereo not shown) [delta-carotene]	–	not significantly different	–
CC1=C(/C=C/C(C)=C/C=C/C(C)=C/C=C/C=C(C)/C=C/C=C(C)/C=C/C2=C(C)C(=O)[C@@H](O)CC2(C)C)C(C)(C)C[C@H](O)C1=O [astaxanthin]	not significantly different	–	–
